Experimental data reported in article PMC11899342, “Novel Triazeneindole Antibiotics: Synthesis and Hit-to-Lead Optimization” (International Journal of Molecular Sciences, 2025).
In brackets after ≈: the same amount, converted by molar mass. Where two headings read alike, the source gives them in different places.

Tests used:
MRSA clinical isolates = experiment: MIC by broth microdilution against multidrug-resistant MRSA clinical isolates; type: cell-based, Staphylococcus aureus; details: for MIC: Staphylococcus aureus, MRSA, read-out: MIC
Summary of the method: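 Multidrug-resistant clinical MRSA isolates, 1 × 10^6 CFU/mL suspension in Mueller Hinton broth, broth microdilution with compounds at final 1, 0.5, 0.25 and 0.125 mg/L. Incubated 18 h at 37 °C; MIC taken as lowest concentration with no visible growth, triplicate.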

[1] = tested on: human embryonic fibroblasts (HEFs); experiment: MTT cytotoxicity on human embryonic fibroblasts; type: cell-based; details: Homo sapiens, Fibroblast, 24 h, ND = non-toxic in tested concentrations (up to 50 mg/L)
Procedure: (§1) The primary screening of 22 substances was performed on human embryonic fibroblasts (HEFs). […] The HepG2 cell line was obtained from the American Type Culture Collection (ATCC cat. # HB-8065). The primary HEF cells (normal human embryonic fibroblasts) were derived from human embryonic stem cells. The cells were cultured in DMEM/F12 (1:1) medium containing 10% fetal bovine serum (Invitrogen, Carlsbad, CA, USA) at 37 °C and 5% CO2, according to standard mammalian tissue culture protocols and sterile technique. […] The incubation time with the substance was 24 h for all substances and cell lines. Cell detachment by trypsin, centrifugation, and counting in a hemocytometer were performed 16 h before the addition of the substance. For correct counting of the HepG2 cells, the cell suspension was passed through a syringe needle to get rid of cell aggregates. The cells were placed in the wells of a 96-well plate. The number of cells was selected according to the properties of the cell line and the final optical density in the experiment. Fibroblasts and hepatocytes were used in the amount of 10 thousand cells per well in 100 μL of DMEM/F12 medium supplemented with 10% fetal bovine serum. The substances were added to 100 µL of medium in the wells so that the final concentrations were 50, 25, 12.5, 6.25, 3.125, and 1.62 mg/L. The final well volume was 200 µL. The medium containing fetal bovine serum, without added substances, was used as a negative control. After 24 h, excessive amounts of medium were discarded. A total of 30 µL of MTT solution (5 mg/mL in PBS) was added to each well. After the precipitation of formazan crystals (3 h incubation), they were dissolved using 100 μL of dimethyl sulfoxide. The optical density (OD) was measured at 570 nm using a microplate reader (Eppendorf). For every condition, the cell viabilities were assessed in at least three independent experiments for every cell culture. Cell survival was calculated using the following formula:(OD of treated cells − OD blank)/(OD of control cells − OD blank) × 100%, where OD blank represents the OD values in wells without cells but with the addition of the MTT and DMSO solutions. The results were presented in the form of cytotoxicity curves, and the graphs were also plotted in a Microsoft Excel program; the calculation of the IC50 half-maximal inhibition concentration values was performed in a GraphPad Prism 6.0 (GraphPad Software Inc., San Diego, CA, USA) program, based on the equations of the cytotoxicity curves.

[2] = tested on: HepG2 human liver carcinoma cells; experiment: MTT cytotoxicity (hepatotoxicity) on HepG2; type: cell-based; details: Homo sapiens, HepG2, 24 h
Procedure: as §1

MRSA = experiment: Selectivity index (average IC50 on eukaryotic cells / average MIC on MRSA); type: cell-based, Staphylococcus aureus; details: average IC50 on eukaryotic cells divided by average MIC on MRSA
Procedure: The selectivity index was calculated for each compound as the average IC50 on eukaryotic cells divided by the average MIC on MRSA (Table 2).

[3] = Solubility in water by HPLC; type: physicochemical; details: water, kinetic from dmso stock
Summary of the method: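 Compound (1.0 mg in 10 μL DMSO) mixed with 1.0 mL water, shaken 5 min and centrifuged; supernatant analysed by C18 HPLC. Water concentration derived from peak area relative to an acetonitrile standard at 1.0 mg/mL.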

MIC Range Against 8 MRSA Strains (MRSA clinical isolates; 8 multidrug-resistant MRSA clinical isolates, tested 0.125-1 mg/L): 1 µg/mL (≈ 3.17 µM)
MIC (MRSA clinical isolates; Table S4, MRSA strain 1): 0.5 µg/mL (≈ 1.59 µM)
MIC (MRSA clinical isolates; Table S4, MRSA strain 2): 1 µg/mL (≈ 3.17 µM)
MIC (MRSA clinical isolates; Table S4, MRSA strain 3): 1 µg/mL (≈ 3.17 µM)
MIC (MRSA clinical isolates; Table S4, MRSA strain 4): 1 µg/mL (≈ 3.17 µM)
MIC (MRSA clinical isolates; Table S4, MRSA strain 5): 0.5 µg/mL (≈ 1.59 µM)
MIC (MRSA clinical isolates; Table S4, MRSA strain 6): 0.5 µg/mL (≈ 1.59 µM)
MIC (MRSA clinical isolates; Table S4, MRSA strain 7): 1 µg/mL (≈ 3.17 µM)
MIC (MRSA clinical isolates; Table S4, MRSA strain 8): 1 µg/mL (≈ 3.17 µM)
MIC (MRSA clinical isolates; Table S4, MRSA strain 9): 1 µg/mL (≈ 3.17 µM)
MIC (MRSA clinical isolates; Table S4, MRSA strain 10): 1 µg/mL (≈ 3.17 µM)
MIC (MRSA clinical isolates; Table S4, MRSA strain 12): 1 µg/mL (≈ 3.17 µM)
MIC (MRSA clinical isolates; Table S4, MRSA strain 13): 1 µg/mL (≈ 3.17 µM)
MIC (MRSA clinical isolates; Table S4, MRSA strain 14): 1 µg/mL (≈ 3.17 µM)
MIC (MRSA clinical isolates; Table S4, MRSA strain 15): 1 µg/mL (≈ 3.17 µM)
MIC (MRSA clinical isolates; Table S4, MRSA strain 16): 0.5 µg/mL (≈ 1.59 µM)
MIC (MRSA clinical isolates; Table S4, MRSA strain 17): 1 µg/mL (≈ 3.17 µM)
MIC (MRSA clinical isolates; Table S4, MRSA strain 18): 1 µg/mL (≈ 3.17 µM)
MIC (MRSA clinical isolates; Table S4, MRSA strain 21): 1 µg/mL (≈ 3.17 µM)
MIC (MRSA clinical isolates; Table S4, MRSA strain 23): 1 µg/mL (≈ 3.17 µM)
MIC (MRSA clinical isolates; Table S4, MRSA strain 24): 1 µg/mL (≈ 3.17 µM)
MIC (MRSA clinical isolates; Table S4, MRSA strain 25): 1 µg/mL (≈ 3.17 µM)
MIC (MRSA clinical isolates; Table S4, MRSA strain 26): 0.5 µg/mL (≈ 1.59 µM)
MIC (MRSA clinical isolates; Table S4, MRSA strain 27): 1 µg/mL (≈ 3.17 µM)
MIC (MRSA clinical isolates; Table S4, MRSA strain 28): 1 µg/mL (≈ 3.17 µM)
MIC (MRSA clinical isolates; Table S4, MRSA strain 29): 1 µg/mL (≈ 3.17 µM)
MIC (MRSA clinical isolates; Table S4, MRSA strain 30): 1 µg/mL (≈ 3.17 µM)
MIC (MRSA clinical isolates; Table S4, MRSA strain 31): 1 µg/mL (≈ 3.17 µM)
MIC (MRSA clinical isolates; Table S4, MRSA strain 34): 1 µg/mL (≈ 3.17 µM)
MIC (MRSA clinical isolates; Table S4, MRSA strain 35): 1 µg/mL (≈ 3.17 µM)
MIC (MRSA clinical isolates; Table S4, MRSA strain 36): 1 µg/mL (≈ 3.17 µM)
MIC (MRSA clinical isolates; Table S4, MRSA strain 40): 1 µg/mL (≈ 3.17 µM)
MIC (MRSA clinical isolates; Table S4, MRSA strain 41): 1 µg/mL (≈ 3.17 µM)
MIC (MRSA clinical isolates; Table S4, MRSA strain 42): 1 µg/mL (≈ 3.17 µM)
MIC (MRSA clinical isolates; Table S4, MRSA strain 43): 1 µg/mL (≈ 3.17 µM)
MIC (MRSA clinical isolates; Table S4, MRSA strain 44): 1 µg/mL (≈ 3.17 µM)
MIC (MRSA clinical isolates; Table S4, MRSA strain 45): 1 µg/mL (≈ 3.17 µM)
MIC (MRSA clinical isolates; Table S4, MRSA strain 46): 1 µg/mL (≈ 3.17 µM)
MIC (MRSA clinical isolates; Table S4, MRSA strain 48): 1 µg/mL (≈ 3.17 µM)
MIC (MRSA clinical isolates; Table S4, MRSA strain 49): 1 µg/mL (≈ 3.17 µM)
MIC (MRSA clinical isolates; Table S4, MRSA strain 50): 1 µg/mL (≈ 3.17 µM)
MIC (MRSA clinical isolates; Table S4, MRSA strain 51): 1 µg/mL (≈ 3.17 µM)
solubility at 5 min ([3]; read-out: Solubility in water, mass concentration): 90.5 µg/mL
solubility at 5 min ([3]; read-out: Solubility in water, molar concentration): 280 µM
Compound: CCOC(=O)c1[nH]c2ccccc2c1/N=N/N1CCN(C)CC1 [BX-SI001, Ethyl (E)-3-((4-methylpiperazin-1-yl)diazenyl)-1H-indole-2-carboxylate]
IC50 [1]: 19 µg/mL (≈ 60.2 µM)
IC50 [2]: 22 µg/mL (≈ 69.8 µM)
Selectivity Index (MRSA): 19
